Data on four compounds can be found in patent EP1321169A1, “Combination of a serotonin receptor antagonist with a histidine decarboxylase inhibitor as a medicament” (Biofrontera Pharmaceuticals AG, priority 2001, dated 2003).

SMILES strings stand for the structures.

Series [1] addresses T1, human Histamine H2 receptor (Homo sapiens, UniProt P25021).
T1 construct: expressed in transfected cells; host or cells: COS-7 (transient)
As to the kind of experiment: Cloned human H2 receptor binding assay, [3H]-thiotidine, COS-7 cells. The conditions noted are these: n.A. = no affinity (= no inhibition of histamine activity) detected, read-out: Receptor Affinity: pK Values, measured receptor H2 (converted). The method, then: (§1) COS-7 cells were transiently transfected with an expression plasmid pCineohH1, pCineohH2, pCineohH3 and pCineohH4 encoding the human Histamine H1, H2 H3 or H4 receptor, respectively. Transfected cells were harvested after 48 h, homogenized in ice-cold 50 mM Na2/potassium phosphate buffer (pH 7.4) and used for radioligand binding studies. Cell homogenates (40 - 50 µg of protein) were incubated for 30 min at 25°C in 50 mM Na2/potassium phosphate buffer (pH 7.4) in 400 µl with the various concentrations of either [^3H]-mepyramine, [^3H]-thiotidine, [^3H]-R-α-Methylhistamine, and [^3H]-pyramilamine for cells expressing recombinant human H1, H2, H3 and H4 receptors, respectively. The nonspecific binding was defined in the presence of 1 µM mianserin. In displacement studies, cell homogenated were incubated either with 1 nM [^3H]-mepyramine, 15 nM [^3H]-thiotidine, 0.5 nM [^3H]-R-α-Methylhistamine, or 15 nM [^3H]-pyramilamine and increasing concentrations of competing ligands. The incubations were stopped by rapid dilution with 3 ml of ice-cold 50 mM Na2/potassium phosphate buffer (pH 7.4). The bound radioactivity was separated by filtration through Whatman GF/C filters that had been treated with 0.3 % polyethyleneimine. Filters were washed twice in 3 ml of buffer and radioactivity retained on the filters was measured by liquid scintillation counting.

The test system of series [2] is human histamine receptors. As to the kind of experiment: Cloned human H1, H2, H3 and H4 receptor binding assay (summary statement). Particulars: statement in words. As for the experimental part: as §1
For series [3] the following is noted: repeated administration; cited from earlier work.

T1 sequence (P25021 whole entry): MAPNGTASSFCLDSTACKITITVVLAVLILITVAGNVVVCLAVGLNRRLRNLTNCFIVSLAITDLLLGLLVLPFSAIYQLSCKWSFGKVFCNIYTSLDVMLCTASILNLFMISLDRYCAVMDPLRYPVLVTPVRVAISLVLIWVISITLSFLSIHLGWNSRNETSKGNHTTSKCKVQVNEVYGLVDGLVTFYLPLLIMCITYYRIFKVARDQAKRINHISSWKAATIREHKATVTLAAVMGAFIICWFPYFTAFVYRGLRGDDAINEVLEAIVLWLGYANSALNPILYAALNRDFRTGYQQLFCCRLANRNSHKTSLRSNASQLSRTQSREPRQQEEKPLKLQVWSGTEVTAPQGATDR

Take `CCOc1ccc2c(c1)Sc1cccc(O)c1C2=C1CCN(C)CC1` [4-(6-Ethoxy-1-hydroxy-thioxanthen-9-yliden)-1-methyl-piperidine]: in series [1], the Ki is 3.24 µM.

Take `CCOc1ccc2c(c1)Sc1cccc(OC)c1C2=C1CCN(C)CC1` [4-(6-Ethoxy-1-methoxy-thioxanthen-9-yliden)-1-methyl-piperidine]: the Ki in series [1] was 2.04 µM.

In the case of `N[C@@](CF)(Cc1cnc[nH]1)C(=O)O` [FMH, (S)-α-fluoromethylhistidine], the “affinity for the human histamine receptors” value in series [2] is recorded as “low affinity”. Besides, in series [3], the sedative effects entry is reported as “only very mild sedative effects” and the tissue histamine content entry is “strong reduction”.

As to `COc1cccc2c1C(=C1CCN(C)CC1)c1ccc(C(C)C)cc1S2` [4-(6-Isopropyl-1-methoxy-thioxanthen-9-yliden)-1-methyl-piperidine], the Ki in series [1] was 1.05 µM.
